SMILES strings stand for the structures. Like-named read-outs stand apart in the source and are kept apart here.

The record followed here is US12492170B2, “Tetrahydro-1H-benzazepine compound as potassium channel modulator, preparation method and use thereof” (Shanghai Zhimeng Biopharma Inc., priority 2019, dated 2025).

One data set concerns the target T1, KCNQ2 potassium channel (Homo sapiens, UniProt O43526).
T1 construct: expressed in transfected cells; host or cells: CHO (CHO-KCNQ2, kept under G418 selection)
As to the kind of experiment: Potassium ion channel opener activity test (FDSS/μCELL detection, FluxOR). In kind it is cell-based. On the procedure:
After the digestion was completed, 7 mL culture medium (90% DMEM/F12+10% FBS+500 μg/mL G418) was added to neutralize, centrifugated for 3 minutes at 800 rpm, the supernatant was aspirated, then 5 mL culture medium was added to resuspend, and then the cells were counted.
Cell plating: the density to 3×10^4/well was adjusted according to the results of cell counting. After standing at room temperature for 30 minutes, placed in a 37° C. CO2 incubator and incubated overnight for 16-18 hours. The cell density reached about 80%.
Fluorescent dye incubation: discarded the cell culture medium, 80 μL/well loading buffer was added, and incubated in the dark at room temperature for 60 minutes.
Compound incubation: discarded the loading buffer, 80 μL/well prepared compound solution was added, incubated in the dark at room temperature for 20 minutes.
Fluorescence data collection: FDSS/μCELL instrument was used for real-time fluorescence signal recording, excitation wavelength was 480 nm, emission wavelength was 540 nm, recorded 1 times per second, recorded for 10 seconds after baseline and started to add 20 μL/well stimulation buffer, and then continued to record until the end of 180 seconds.
20 mM compound stock solution in DMSO was prepared, 10 μL of 20 mM compound stock solution was took into 20 μL DMSO solution, serially diluted 3 times to 8 intermediate concentrations; then the intermediate concentrations of the compound were took to the test buffer, diluted 200 times to get the final concentration to be tested, 80 μL was took and added to the test plate.
Each concentration set 3 duplicates.
The excitement effect of the compound was calculated by the following formula: […]

A short description of data set [1]: Pharmacokinetics and cerebral blood ratio after single administration in male ICR mice. It is filed as in vivo. The settings on record: for AUC(0-inf) / AUC(0-t) / Cmax / half-life / Tmax: plasma. The protocol: Take a healthy male ICR mouse (weight range: 18-22 grams in), grouping, 24 mice/group, and 3 mice/time point, fasting for more than 12 hours (only oral administration group), administration, blood was collected by cardiac puncture at time points 0.083 (only iv), 0.25, 0.5, 1, 2, 4, 6 (only po), 8 and 24 hours, at least 0.3 mL of whole blood was collected to EDTA-K2 anti-coagulation tube, within half an hour, plasma was taken by centrifuge (6000 revolutions, 8 minutes, 4° C.), frozen at −20° C. for later use. At the same time, brain tissue was collected in the oral group. After being rinsed with the physiological saline, the water absorbing paper was used to dry, weighed, and frozen at −20° C. for later use.

Data set [2] in a line: Safety research: single tail vein injection toxicity, maximum tolerated dose. In kind it is in vivo. The settings on record: rat, in vivo, male SD rats, observed 48 hours. On the procedure:
(§1) Male Sprague-Dawley (SD) rats (SPF grade) were selected, divided into groups (3 rats per group), and administered via tail vein injection. Single administration, observed for 48 hours after administration. During the experiment, two cage-side observations and two detailed clinical observations were performed every day (observation was carried out before and 2 hours after the administration on the day of administration). Toxicity study animals were weighed and recorded every day, and food consumption of each animal for 24±1 hours was measured and recorded every day. At the end of the experiment (D3), euthanasia was performed by carbon dioxide inhalation anesthesia and the death of the animal was ensured by abdominal aorta/venous bleeding, and gross anatomy was performed and recorded.

A further data set concerns SD rats. The data set is described as above. It is filed as in vivo. The settings on record: male SD rats; for Maximum tolerated dose: observed 48 hours. On the procedure: as §1
The mark [3] stands for this setting: CHO-KCNQ2 cells, fluorescence, FDSS/μCELL, read-out: EC50.

Broadly, the EC50 is the concentration that produces a half-maximal response. Regarding `Cc1cc2c(c(C)c1NC(=O)CC1(C)CC1)CCCCN2Cc1ccc(F)cc1` [Compound A5, N-(1-(4-fluorobenzyl)-6,8-dimethyl-2,3,4,5-tetrahydro-1H-benzazepine-7-yl)-2-(1-methylcyclopropyl)acetamide], the EC50 on KCNQ2 potassium channel (setting [3]) worked out at 133 nM.
What is called Kp is the ratio of the level in a tissue or fluid to that in plasma or blood. Usually AUC(0-inf) stands for the area under the concentration-time curve extrapolated to infinity. One may read the AUC(0-t) as the area under the concentration-time curve up to a stated or last time point. Broadly, the Cmax is the peak of the concentration-time curve. The term half-life denotes how long it takes for the measured level to halve. For orientation: Tmax means the time from dosing to the highest level. For the molecule `C#CC(C)(C)CC(=O)Nc1c(C)cc2c(c1C)CCCCN2Cc1ccc(F)cc1` [Compound A4, N-(1-(4-fluorobenzyl)-6,8-dimethyl-2,3,4,5-tetrahydro-1H-benzazepine-7-yl)-3,3-dimethylpent-4-ynamide], the EC50 at KCNQ2 potassium channel (setting [3]) turned out to be 165 nM. The F in data set [1] (gavage 2.5 mg/kg vs intravenous 0.5 mg/kg) turned out to be 43.39%. Besides, in data set [1] (mouse, brain, single oral 2.5 mg/kg, 1 h), the Kp at 1 h was determined as 1.1. Further, the Kp at 2 h in data set [1] (mouse, brain, single oral 2.5 mg/kg, 2 h) is 1.1. In data set [1] (mouse, brain, single oral 2.5 mg/kg, 4 h), the Kp at 4 h amounted to 1.3. Besides, the Kp at 8 h in data set [1] (mouse, brain, single oral 2.5 mg/kg, 8 h) was 1.1. Further, in data set [1] (mouse, intravenous 0.5 mg/kg), the AUC(0-inf) was 255 ng·h/mL, the AUC(0-t) stood at 235 ng·h/mL, the peak concentration (Cmax) was determined as 294 ng/mL and the half-life was 1.9 h. Also, in data set [1] (mouse, po, gavage 2.5 mg/kg), the AUC(0-inf) was 541 ng·h/mL, the AUC(0-t) turned out to be 510 ng·h/mL, the Cmax was determined as 257 ng/mL and the time to peak (Tmax) was determined as 0.5 h. The half-life in data set [1] (mouse, po, gavage 2.5 mg/kg) is 1.95 h.
For orientation: MTD means the largest dose that counted as tolerated. Higher therefore signals a wide tolerated range. In turn, `Cc1cc2c(c(C)c1NC(=O)CC(C)(C)C)CCN2Cc1ccc(F)cc1` [Compound B2, reference compound] gave an MTD at 48 h in data set [2] of 0.3 to 1 mg/kg. In addition, the “toxicity” value in the data set on SD rats (dose of 1 mg/kg) was “unacceptable toxicity”.
Consider `Cc1cc2c(c(C)c1NC(=O)CC(C)(C)C)CCCCN2Cc1ccc(F)cc1` [Compound A1, N-(1-(4-fluorobenzyl)-6,8-dimethyl-2,3,4,5-tetrahydro-1H-benzazepine-7-yl)-3,3-dimethylbutanamide], for which the Maximum tolerated dose result in the data set with SD rats was “MTD > 1 mg/kg”. The molecule also yielded an EC50 on KCNQ2 potassium channel of 83 nM. In data set [1] (gavage 1 mg/kg vs intravenous 0.3 mg/kg), the F is 56.9%. Further, in data set [1] (mouse, intravenous 0.3 mg/kg), the AUC(0-inf) came to 74 ng·h/mL, the AUC(0-t) came to 73 ng·h/mL, the Cmax was 110 ng/mL and the half-life is 5.32 h. Further, in data set [1] (mouse, po, gavage 1 mg/kg), the AUC(0-inf) was determined as 139 ng·h/mL, the AUC(0-t) was 138 ng·h/mL, the Cmax came out at 94.4 ng/mL and the Tmax is 0.5 h. Further, in data set [1] (mouse, po, gavage 1 mg/kg), the half-life was 5.42 h.
`Cc1cc2c(c(C)c1NC(=O)CCC1CCCC1)CCCCN2Cc1ccc(F)cc1` [Compound A2, 3-cyclopentyl-N-(1-(4-fluorobenzyl)-6,8-dimethyl-2,3,4,5-tetrahydro-1H-benzazepine-7-yl)propionamide]: the Maximum tolerated dose entry in the data set with SD rats is “MTD > 1 mg/kg”. In addition, the EC50 on KCNQ2 potassium channel stood at 37 nM.
As for `Cc1cc2c(c(C)c1NC(=O)CCC1CCCC1)CCCCN2Cc1ccc(F)s1` [Compound A8, 3-cyclopentyl-N-(1-((5-fluorothiophene-2-yl)methyl)-6,8-dimethyl-2,3,4,5-tetrahydro-1H-benzazepine-7-yl)propionamide], the Maximum tolerated dose result with SD rats is recorded as “MTD > 1 mg/kg”. This molecule also registered an EC50 on KCNQ2 potassium channel of 48 nM.
On the same counts, the results for `Cc1cc2c(c(C)c1NC(=O)CC(C)(C)C)CCCCN2Cc1ccc(Cl)s1` [Compound A6, N-(1-((5-chlorothiophene-2-yl)methyl)-6,8-dimethyl-2,3,4,5-tetrahydro-1H-benzazepine-7-yl)-3,3-dimethylbutamide] are “MTD > 1 mg/kg” and 21 nM.
In turn, `Cc1cc2c(c(C)c1NC(=O)CC(C)(C)C)CCCN2Cc1ccc(F)cc1` [Compound B1, reference compound] showed an MTD at 48 h in data set [2] of 0.06 to 0.3 mg/kg. The “toxicity” value in the data set with SD rats (dose of 0.3 mg/kg) is “unacceptable toxicity”.
On to `Cc1cc2c(c(C)c1NC(=O)CC(C)(C)C)CCCCN2Cc1ccc(F)s1` [Compound A7, N-(1-((5-fluorothiophene-2-yl)methyl)-6,8-dimethyl-2,3,4,5-tetrahydro-1H-benzazepine-7-yl)-3,3-dimethylbutamide], for which the Maximum tolerated dose result in the data set on SD rats is on record as “MTD > 1 mg/kg”. Further, on KCNQ2 potassium channel, the EC50 is 16 nM.
In the case of `CCCC(=O)Nc1c(C)cc2c(c1C)CCCCN2Cc1ccc(F)cc1` [Compound A3, N-(1-(4-fluorobenzyl)-6,8-dimethyl-2,3,4,5-tetrahydro-1H-benzazepine-7-yl)butanamide], the EC50 at KCNQ2 potassium channel (setting [3]) was determined as 271 nM.
